Assay results as given in US20240415914A1, “Water Dispersible Cannabinoid Compositions” (priority 2021, published 2024).
Read-outs that look alike come from different tables or passages of the source.

Experiments:
[1] = Stability of cannabinoid and Vitamin E components of Beverage 2 (AB Red) stored at 8° C. and 21-25° C., LCMSMS over 570 days; conditions: AB Red
[2] = Stability of cannabinoid and Vitamin E components of Beverage 1 (AB White) stored at 8° C. and 21-25° C., LCMSMS over 570 days; type: physicochemical; conditions: for Storage time after which slight degradation / significant losses are seen: AB White; for Stability in AB White, 8° C. (content by LCMSMS): beverage stored at 8° C.
[3] = type: physicochemical; conditions: for Stability in Powder Concentrate (content by LCMSMS): stored at room temperature (21-25° C.)
Procedure: At each time period, 0.05 g of powder was dissolved in 10 ml-15 of ethanol, diluted to fall within the analytical range, and injected into the LCMSMS for analysis.

In the case of `C=C(C)[C@@H]1CCC(C)=C[C@H]1c1c(O)cc(CCCCC)cc1O` [CBD, cannabidiol, reference compound], the “Storage time after which slight degradation / significant losses are seen” value ([1]; stored at 8° C.) is reported as > 420 days, the “Storage time after which slight degradation / significant losses are seen” value ([1]; stored at 21-25° C.) is reported as > 390 days and the “Storage time after which slight degradation / significant losses are seen” value ([2]; stored at 8° C.) is reported as > 480 days. The “Storage time after which slight degradation / significant losses are seen” value ([2]; stored at 21-25° C.) was > 390 days, the “Stability in AB White, 8° C. (content by LCMSMS)” value (from here on “Stability in AB White”) ([2]; day 0) was 28.5 µg/mL and the “Stability in AB White” value ([2]; day 1) was 27.65 µg/mL. The “Stability in AB White” value ([2]; day 2) was 27.67 µg/mL, the “Stability in AB White” value ([2]; day 3) was 27.96 µg/mL and the “Stability in AB White” value ([2]; day 5) was 28.61 µg/mL. The “Stability in AB White” value ([2]; day 8) was 28.47 µg/mL, the “Stability in AB White” value ([2]; day 9) was 28.44 µg/mL and the “Stability in AB White” value ([2]; day 10) was 27.87 µg/mL. The “Stability in AB White” value ([2]; day 11) was 28.13 µg/mL, the “Stability in AB White” value ([2]; day 12) was 28.10 µg/mL and the “Stability in AB White” value ([2]; day 15) was 27.99 µg/mL. For the same compound, the “Stability in AB White” value ([2]; day 16) was 28.04 µg/mL, the “Stability in AB White” value ([2]; day 17) was 27.84 µg/mL and the “Stability in AB White” value ([2]; day 18) was 27.87 µg/mL. The “Stability in AB White” value ([2]; day 19) was 28.36 µg/mL, the “Stability in AB White” value ([2]; day 22) was 28.50 µg/mL and the “Stability in AB White” value ([2]; day 23) was 27.67 µg/mL. For the same compound, the “Stability in AB White” value ([2]; day 24) was 28.44 µg/mL, the “Stability in AB White” value ([2]; day 25) was 27.65 µg/mL and the “Stability in AB White” value ([2]; day 26) was 27.73 µg/mL. For the same compound, the “Stability in AB White” value ([2]; day 29) was 28.24 µg/mL, the “Stability in AB White” value ([2]; day 30) was 27.93 µg/mL and the “Stability in AB White” value ([2]; day 60) was 27.73 µg/mL. The “Stability in AB White” value ([2]; day 90) was 27.87 µg/mL, the “Stability in AB White” value ([2]; day 120) was 27.39 µg/mL and the “Stability in AB White” value ([2]; day 150) was 28.59 µg/mL. The “Stability in AB White” value ([2]; day 180) was 27.59 µg/mL, the “Stability in AB White” value ([2]; day 210) was 27.76 µg/mL and the “Stability in AB White” value ([2]; day 240) was 27.79 µg/mL. The “Stability in AB White” value ([2]; day 270) was 28.07 µg/mL, the “Stability in AB White” value ([2]; day 300) was 27.96 µg/mL and the “Stability in AB White” value ([2]; day 330) was 27.33 µg/mL. For the same compound, the “Stability in AB White” value ([2]; day 360) was 27.79 µg/mL, the “Stability in AB White” value ([2]; day 390) was 27.50 µg/mL and the “Stability in AB White” value ([2]; day 420) was 27.50 µg/mL. The “Stability in AB White” value ([2]; day 480) was 27.13 µg/mL, the “Stability in AB White” value ([2]; day 510) was 26.48 µg/mL and the “Stability in AB White” value ([2]; day 540) was 26.51 µg/mL. For the same compound, the “Stability in AB White” value ([2]; day 570) was 26.22 µg/mL, the “Chemical stability over the entire period (result in words)” value ([3]; powder concentrate, room temperature (21-25° C.), 570 days) was “no significant degradation” and the “Stability in Powder Concentrate (content by LCMSMS)” value (“Stability in Powder Concentrate” below) ([3]; day 0) was 5.85 mg/g powder. For the same compound, the “Stability in Powder Concentrate” value ([3]; day 1) was 5.69 mg/g powder, the “Stability in Powder Concentrate” value ([3]; day 2) was 5.76 mg/g powder and the “Stability in Powder Concentrate” value ([3]; day 3) was 5.81 mg/g powder. For the same compound, the “Stability in Powder Concentrate” value ([3]; day 5) was 5.84 mg/g powder, the “Stability in Powder Concentrate” value ([3]; day 8) was 5.91 mg/g powder and the “Stability in Powder Concentrate” value ([3]; day 9) was 6.01 mg/g powder. For the same compound, the “Stability in Powder Concentrate” value ([3]; day 10) was 5.69 mg/g powder, the “Stability in Powder Concentrate” value ([3]; day 11) was 6.00 mg/g powder and the “Stability in Powder Concentrate” value ([3]; day 12) was 5.76 mg/g powder. The “Stability in Powder Concentrate” value ([3]; day 15) was 5.85 mg/g powder, the “Stability in Powder Concentrate” value ([3]; day 16) was 5.97 mg/g powder and the “Stability in Powder Concentrate” value ([3]; day 17) was 5.97 mg/g powder. For the same compound, the “Stability in Powder Concentrate” value ([3]; day 18) was 6.01 mg/g powder, the “Stability in Powder Concentrate” value ([3]; day 19) was 5.74 mg/g powder and the “Stability in Powder Concentrate” value ([3]; day 22) was 5.84 mg/g powder. For the same compound, the “Stability in Powder Concentrate” value ([3]; day 23) was 6.10 mg/g powder, the “Stability in Powder Concentrate” value ([3]; day 24) was 5.89 mg/g powder and the “Stability in Powder Concentrate” value ([3]; day 25) was 6.01 mg/g powder. The “Stability in Powder Concentrate” value ([3]; day 26) was 6.00 mg/g powder, the “Stability in Powder Concentrate” value ([3]; day 29) was 5.97 mg/g powder and the “Stability in Powder Concentrate” value ([3]; day 30) was 5.94 mg/g powder. For the same compound, the “Stability in Powder Concentrate” value ([3]; day 60) was 5.66 mg/g powder, the “Stability in Powder Concentrate” value ([3]; day 90) was 6.00 mg/g powder and the “Stability in Powder Concentrate” value ([3]; day 120) was 5.80 mg/g powder. The “Stability in Powder Concentrate” value ([3]; day 150) was 5.65 mg/g powder, the “Stability in Powder Concentrate” value ([3]; day 180) was 5.93 mg/g powder and the “Stability in Powder Concentrate” value ([3]; day 210) was 5.83 mg/g powder. The “Stability in Powder Concentrate” value ([3]; day 240) was 5.98 mg/g powder, the “Stability in Powder Concentrate” value ([3]; day 270) was 5.72 mg/g powder and the “Stability in Powder Concentrate” value ([3]; day 300) was 5.84 mg/g powder. The “Stability in Powder Concentrate” value ([3]; day 330) was 6.01 mg/g powder, the “Stability in Powder Concentrate” value ([3]; day 360) was 5.97 mg/g powder and the “Stability in Powder Concentrate” value ([3]; day 390) was 5.93 mg/g powder. For the same compound, the “Stability in Powder Concentrate” value ([3]; day 420) was 5.94 mg/g powder, the “Stability in Powder Concentrate” value ([3]; day 450) was 5.65 mg/g powder and the “Stability in Powder Concentrate” value ([3]; day 480) was 5.66 mg/g powder. The “Stability in Powder Concentrate” value ([3]; day 510) was 6.01 mg/g powder, the “Stability in Powder Concentrate” value ([3]; day 540) was 5.81 mg/g powder and the “Stability in Powder Concentrate” value ([3]; day 570) was 5.85 mg/g powder.
